Measurements taken from patent publication US20120142715A1, “POLYMORPH OF [4,6-BIS(DIMETHYLAMINO)-2-(4-BENZYL)PYRIMIDIN-5-YL]” (BOEHRINGER INGELHEIM INTERNATIONAL GMBH, priority 2009, published 2012).
Where a name gives a salt, the structure may show the parent alone.

How the values were obtained:
[1] = Dynamic vapor sorption (water sorption/desorption); type: physicochemical; conditions: for hygroscopicity (in words): DVS; for moisture gain / water uptake: 85% relative humidity
Procedure: Water sorption/desorption profiles: Water sorption/desorption profiles of the Type II ethylenediamine salt are shown in FIG. 6. […] A similar water sorption/desorption study was carried out on the Type I ethylenediamine salt (FIG. 7). […] The sorption of water caused a form change in the Type I ethylenediamine salt which was observed using XRPD analysis.
Vapor sorption/desorption was carried out using Surface Measurement Systems DVS-HT. Samples were placed into a foil insert placed on a sample pan. […] The equilibrium point of each step was reached when 0.002% of weight change was reached.

[2] = DSC and TGA thermal events / weight loss at elevated temperature; type: physicochemical
Procedure: Weight loss at elevated temperature: Differences in thermal characteristics between the Type I and Type II ethylenediamine salts were also observed using differential scanning calorimetry (DSC), thermal gravimetric analysis (TGA) and dynamic vapor sorption (DVS) studies.
DSC and TGA thermograms of the Type II ethylenediamine salt (FIG. 4) indicate minimal loss of residual solvent up to 100° C. (about 0.16% which is controllable by more thorough drying). […] A first endothermic peak appears at about 192° C. with about 5.6% of total weight loss in TGA at corresponding temperature region (140° C. to 210° C.). This weight loss corresponds roughly to the theoretical weight loss (5.99 wt %) of ethylenediamine from the ethylenediamine salt of the compound of formula (I) (which contains 0.50 molar equivalents of ethylenediamine). […] The following endothermic peak is shown at 232° C. which is similar to the melting point of the free-acid form of the compound of formula (I).
There is about 3.8% weight loss at 20° C. to 70° C., which corresponds to the loss of water. A major endotherm at 118° C. to 134° C. corresponds to the melting of the ethylenediamine salt with volatilization, corresponding to the loss of ethanol and some ethylenediamine (about 4.4%). Further loss of ethylenediamine occurs at about 147° C. to 160° C. Above 165° C., melting and decomposition of the free-acid of the compound of formula (I) take place.
DSC was carried out using TA Instruments Q1000 Differential Scanning Calorimeter. Samples were placed in sealed aluminum pans for analysis with an empty aluminum pan as the reference. A heating rate of 10° C./min was employed over a temperature range from 20° C. to 300° C.
TGA was carried out using TA Instruments Q500 Thermogravimetric analyzer. Samples were placed into an platinum sample pan. A heating rate of 10° C./min was employed over a temperature range from 25° C. to 300° C.

[3] = XRPD analysis of crystallinity after heat-treatment; type: physicochemical; conditions: for change in crystallinity (XRPD) as a result of heat treatment: heated at 80° C. under reduced pressure for 15 hours, vs sample kept at about 25° and atmospheric pressure
Procedure: Effect of heat-treatment on crystallinity: Applicants carried out an XRPD analysis of samples of the Type I and Type II ethylenediamine salts exposed to elevated temperature (80° C.), and the results are shown in FIG. 3. In FIG. 3, the top pattern A-1 was obtained on a sample of the Type II ethylenediamine salt maintained at atmospheric pressure and at about 25° prior to measuring the XRPD reflections. The pattern A-2 was obtained from a sample of the Type II ethylenediamine salt which was heated at 80° C. under reduced pressure for 15 hours prior to measuring the XRPD reflections.
The bottom pattern B-1 was obtained on a sample of the Type I ethylenediamine salt which was maintained at atmospheric pressure and at about 25° prior to measuring the XRPD reflections. The pattern B-2 was obtained from a sample of the Type I ethylenediamine salt which was heated at 80° C. under reduced pressure for 15 hours prior to measuring the XRPD reflections.
XRPD data were recorded with a Rigaku Miniflex II powder diffractometer (The Woodlands, Tex.). The radiation was CuKa (30 kV, 15 mA). Data were collected at 25° C. from 3 to 35 degrees 2θ at 0.02 degrees per step and 1.67 sec per step. Samples were prepared on Silicon (510) specimen holders as a thin layer of powdered material without solvent.

[4] = cited from earlier work

For `CN(C)c1nc(Cc2ccc(NC(=O)c3ccc(C(F)(F)F)cc3)cc2)nc(N(C)C)c1CC(=O)O` [Type II ethylenediamine salt, ethylenediamine salt of [4,6-bis(dimethylamino)-2-(4-{[4-(trifluoromethyl)benzoyl]amino}benzyl)pyrimidin-5-yl]acetic acid], the “proneness to hydration compared with the other polymorph” value [1] was “less prone to hydration”, the “hygroscopicity (in words)” value ([1]; 25° C.) was “non-hygroscopic” and the “moisture gain / water uptake” value ([1]; 25° C.) was “about 0.08%”. For the same compound, the “total weight loss in TGA (loss of ethylenediamine)” value ([2]; 140° C. to 210° C., first endothermic peak at about 192° C.) was “about 5.6%”, the “Onset of event: Melting and loss of ethylenediame” value ([2]; DSC/TGA, 10° C./min) was 160 °C and the “Onset of event: Melting of the free-acid of compound of formula (I)” value ([2]; DSC/TGA, 10° C./min) was 225 °C. The “loss of residual solvent (TGA)” value ([2]; up to 100° C.) was “about 0.16%”, the “thermal stability compared with the other polymorph (XRPD study)” value ([3]; 80° C. heat treatment) was “more thermally stable” and the “change in crystallinity (XRPD) as a result of heat treatment” value [3] was “no noticeable change in the crystallinity”.
For `CN(C)c1nc(Cc2ccc(NC(=O)c3ccc(C(F)(F)F)cc3)cc2)nc(N(C)C)c1CC(=O)O` [Type I ethylenediamine salt, ethylenediamine salt of [4,6-bis(dimethylamino)-2-(4-{[4-(trifluoromethyl)benzoyl]amino}benzyl)pyrimidin-5-yl]acetic acid], the “weight loss in thermogravimetric analysis (attributed to loss of ethanol)” value ([4]; from 125° C. to 150° C.) is given as “larger weight loss”, the “weight loss in thermogravimetric analysis” value ([4]; from about 30° C. to about 75° C.) is given as “slight weight loss” and the “hygroscopicity (in words)” value ([1]; 25° C.) is given as “significant moisture sorption”. For the same compound, the water uptake ([1]; 70% relative humidity, 25° C.) was about 6%, the “moisture gain / water uptake” value ([1]; 25° C.) was about 7% and the “effect of water sorption on solid form (XRPD)” value ([1]; after sorption of water) was “form change”. The “thermal behavior in DSC and TGA thermograms” value [2] was “unstable thermal behavior”, the “weight loss (loss of water)” value ([2]; 20° C. to 70° C.) was “about 3.8%” and the “Onset of event: Loss of water” value ([2]; DSC/TGA, 10° C./min) was 30 °C. For the same compound, the “Onset of event: Melting and loss of ethanol and ethylenediamine” value ([2]; DSC/TGA, 10° C./min) was 120 °C, the “Onset of event: Melting of the free-acid of compound of formula (I)” value ([2]; DSC/TGA, 10° C./min) was 210 °C and the “weight loss (loss of ethanol and some ethylenediamine)” value ([2]; major endotherm at 118° C. to 134° C.) was “about 4.4%”. The “change in crystallinity (XRPD) as a result of heat treatment” value [3] was “significant change in the crystallinity”.
